Holding throughout (assay type): binding
One experiment deals with 53BP1 TTD. Nature of the experiment: Histone peptide microarray, 53BP1 TTD. The settings on record: 53BP1 TTD hits, average signal per peptide. Summed up: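 Histone peptides were printed as microarrays and probed with protein or antibody in 25 mM HEPES pH 7.5, 100 mM NaCl, 0.5% BSA (w/v), 0.1% NP-40. Between steps, slides were washed 3 × 5 min in PBS with 0.1% Tween-20. Bound GST-tagged protein was detected with anti-GST (1:2,000), then AlexaFluor 647 secondary (1:5,000).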

Experiment [1] relates to Active Motif #39161, anti-H3K9me3. Briefly: Histone peptide microarray, Active Motif 39161. The following applies: Active Motif 39161 (anti-H3K9me3) hits.
Experiment [2] concerns Abcam #ab8895, anti-H3K4me1. Briefly: Histone peptide microarray, Abcam ab8895. The settings on record: Abcam ab8895 (anti-H3K4me1) hits, average signal per peptide.
In the next experiment the test system is CST 9733 (anti-H3K27me3). Nature of the experiment: Histone peptide microarray, CST 9733. The settings on record: histone peptide array signal normalized to the highest peptide average per subarray, hits; CST 9733 LOT:14 dilution 1:5,000. The procedure: (§1) Peptide microarrays were fabricated using an Aushon 2470 microarrayer and used as described ([Cornett et al., 2017]) with the following modifications. Protein and antibody hybridization steps were performed in buffer containing 25 mM HEPES pH 7.5, 100 mM NaCl, 0.5% BSA (w/v), and 0.1% NP-40. Slides were washed 3 × 5 min in PBS supplemented with 0.1% Tween-20 between each hybridization step. Antibodies used were primary anti-GST (Sigma #7781, 1:2,000 dilution) and an AlexaFluor 647-labeled secondary antibody (Life Technologies A-21245, 1:5,000 dilution). […] Full lists of peptides queried by array analysis are in Supplementary Table S2.

Experiment [3] deals with Millipore #07-449, anti-H3K27me3. Nature of the experiment: Histone peptide microarray, Millipore 07-449. The settings on record: Millipore 07-449 (anti-H3K27me3) hits, average signal per peptide.
In experiment [4] the test system is ABClonal #A2355, anti-H3K4me1. Briefly: Histone peptide microarray, ABclonal A2355. The following applies: Abclonal A2355 (anti-H3K4me1) hits. On the procedure:
as §1

Where no end group is shown, it is not given here. Me2a = asymmetric dimethyl on Arg; Peg = not defined here

For “ACitTKQTARKSTGGKAPRKQL-K(Biot)-NH2 [Peptide H3.1Cit2]”, the “Avg Signal” value turned out to be 0.1308 in the experiment on 53BP1 TTD, 0.002403 in experiment [1], 0.01656 in experiment [2] and 0.005497 in the experiment with CST 9733 (anti-H3K27me3).
Take “AR(Me2a)TK(Me3)QTARKpSTGGKAPRKQL-K(Biot)-NH2 [H3.1R2me2aK4me3S10p]”: the “Avg Signal” value in the experiment on 53BP1 TTD came to 0.1482; in experiment [1], 0.007954; in experiment [3], 0.02048; in experiment [2], 0.0003692; with CST 9733 (anti-H3K27me3) it was 0.01157.
On the same counts, the results for “AR(Me2a)pTK(Me3)QTARK(Ac)STGGK(Ac)APRK(Ac)QL-K(Biot)-NH2 [H3.1R2me2aT3pK4me3K9acK14acK18ac]” are 0.09934, 0.0001961, 0.005728, 0.003812 and 0.0005148.
Regarding “AR(Me)TK(Me3)QTARK(Ac)STGGK(Ac)APRK(Ac)QL-K(Biot)-NH2 [H3.1R2me1K4me3K9acK14acK18ac]”, the “Avg Signal” value in the experiment with 53BP1 TTD was 0.04917; in experiment [1] it was 0.006911; in experiment [3], 0.05381; in experiment [2], 0.01244; in the experiment with CST 9733 (anti-H3K27me3) it was 0.009005.
Consider “AR(Me)TK(Me3)QTARKSTGGKAPRKQL-K(Biot)-NH2 [H3.1R2me1K4me3]”, for which the “Avg Signal” value in the experiment with 53BP1 TTD stood at 0.08379; in experiment [3] it was 0.07195; in experiment [2], 0.01284; with CST 9733 (anti-H3K27me3), 0.002343.
“ARTK(Me3)QTARKSTGGK(Ac)APRK(Ac)QL-K(Biot)-NH2 [H3.1K4me3K14acK18ac]”: the “Avg Signal” value is 0.09432 with 53BP1 TTD, 0.0136 in experiment [1], 0.01453 in experiment [3] and 0.006975 in the experiment with CST 9733 (anti-H3K27me3).
Turning to “ARTK(Me3)QTARKSTGGK(Ac)APRKQL-K(Biot)-NH2 [H3.1K4me3K14ac]”, the “Avg Signal” value is 0.1175 with 53BP1 TTD; 0.009793 in experiment [1]; 0.02658 in experiment [3]; 0.0003256 in experiment [2]; 0.004624 in the experiment with CST 9733 (anti-H3K27me3).
Take “ARTK(Me3)QTARKpSTGGKAPRKQL-K(Biot)-NH2 [H3.1K4me3S10p]”: the “Avg Signal” value in the experiment with 53BP1 TTD was 0.00608; in experiment [1] it was 0.0006195; in experiment [3] it was 0.003491; with CST 9733 (anti-H3K27me3), 0.002306.
On the same counts, the results for “ARTK(Me3)QpTARK(Ac)STGGK(Ac)APRK(Ac)QL-K(Biot)-NH2 [H3.1K4me3T6pK9acK14acK18ac]” are 0.03157, 0.005164, 0.0001463 and 0.004429.
On the same counts, the results for “ARTK(Me3)QpTARKSTGGKAPRKQL-K(Biot)-NH2 [Peptide H3.1K4me3T6p]” are 0.1846, 0.02043, 0.009429 and 0.001818.
For the substance “ARTKQTAR(Me2a)KSTGGKAPRKQL-Peg-Biot (chain 2 KSTGGKAPRKQL-{Peg-Biot}; not fully specified; reading uncertain) [Peptide H3.1R8me2a]”, the “Avg Signal” value in experiment [4] was found to be 0.000963; in experiment [1] it was 0.01209; in experiment [2], 0.06138.
Consider “ARTKQTARK(Me2)STGGKAPRKQLATKAARK(Me)SAPAT-Peg-Biot [H3.1K9me2K27me1]”, for which the “Avg Signal” value in experiment [4] was 0.05183; in experiment [1], 0.02404; in experiment [3], 0.004141; in experiment [2], 0.3474.
As to “ARTKQpTARK(Me3)STGGKAPRKQL-K(Biot)-NH2 [Peptide H3.1T6pK9me3]”, the “Avg Signal” value is given as 0.226 in the experiment with 53BP1 TTD, 0.3154 in experiment [1], 0.02132 in experiment [3] and 0.01471 in the experiment with CST 9733 (anti-H3K27me3).
With “ATKAARKSAPATGGVK(Ac)KPHRYRPG-GK(Biotin)-OH [Peptide H3.1K36ac]”, the “Avg Signal” value in experiment [4] was 0.001664; in experiment [1], 0.009457; in experiment [3], 0.004604.
Take “ATKAARKSAPATGGVK(Me2)KPHRYRPG-GK(Biotin)-OH [Peptide H3.1K36me2]”: the “Avg Signal” value in experiment [4] was 0.06205; in experiment [1], 0.01273; in experiment [3], 0.005826; in experiment [2], 0.1144.
On the same counts, the results for “ATKAARKSAPATGGVK(Me)KPHRYRPG-GK(Biotin)-OH [Peptide H3.1K36me1]” are 0.006039, 0.001641, 0.002073 and 0.0206.
Turning to “Ac-APRK(Ac)QLATK(Ac)AARK(Ac)pSAPSTGG-Peg-Biot [H3.3K18acK23acK27acS28p]”, the “Avg Signal” value amounted to 0.0001631 in experiment [4], 0.004946 in experiment [1] and 0.0009622 in experiment [3].
Take “Ac-APRK(Me3)QLATKAARKSAPSTGGVK(Me3)KPHRY-GG-K(Biot)-NH2 [H3.3K18me3K36me3]”: the “Avg Signal” value turned out to be 0.1772 in the experiment with 53BP1 TTD; 0.4275 in experiment [1]; 0.2482 in experiment [3]; 0.006536 in experiment [2]; 0.04154 with CST 9733 (anti-H3K27me3).
As to “Ac-APRKQLATK(Me)AARKSAPATGG-Peg-K(Biot)-NH2 [Peptide H3.1K23me1]”, the “Avg Signal” value is given as 0.3577 in experiment [4], 0.004448 in experiment [1], 0.003618 in experiment [3] and 0.124 in experiment [2].
As for “Ac-SGRGK(Ac)GGKGLGKGGAKRHRK(Ac)VLR-Peg-Biot [Peptide H4K5acK20ac]”, the “Avg Signal” value in experiment [4] was determined as 0.0007556; in experiment [1], 0.0005946.
Consider “Ac-SGRGKGGK(Me)GLGKGGAKRHRKVLR-Peg-Biot [Peptide H4K8me1]”, for which the “Avg Signal” value in experiment [4] is on record as 0.02626; in experiment [1] it was 0.0007159; in experiment [2], 0.01379.
Consider “Ac-SGRGKGGKGLGK(Ac)GGAKRHRKVLR-Peg-Biot [Peptide H4K12ac]”, for which the “Avg Signal” value is 0.1511 with 53BP1 TTD, 0.01336 in experiment [1], 0.001961 in experiment [2] and 0.000354 in the experiment on CST 9733 (anti-H3K27me3).
Turning to “Biot-Peg-GKKATQApSQEY-OH [Peptide H2A.XS139p]”, the “Avg Signal” value came out at 0.02695 in experiment [4], 0.0003137 in experiment [3] and 0.05956 in experiment [2].
On the same counts, the results for H3.1.1(1-32) are 0.04529, 0.003069 and 0.3398.
Turning to “PEPAK(Me3)SAPAPKKGSKKAVTKAQKK-Peg-Biot [Peptide H2BK5me3]”, the “Avg Signal” value in the experiment on 53BP1 TTD worked out at 0.04404; in experiment [1], 0.03906; in experiment [3], 0.1635; in the experiment on CST 9733 (anti-H3K27me3), 0.00351.
Regarding “PEPAKSAPAPKK(Ac)GSK(Ac)K(Ac)AVTK(Ac)AQKK-Peg-Biot [H2BK12acK15acK16acK20ac]”, the “Avg Signal” value in experiment [4] was found to be 0.0003507; in experiment [1], 0.009853.

Values taken from publication PMC7160673, “A Degenerate Peptide Library Approach to Reveal Sequence Determinants of Methyllysine-Driven Protein Interactions” (Frontiers in Cell and Developmental Biology, 2020).
